PubChem BioAssay (NCI)
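Dose response: 5 concentrations. Exposure: 48 h. Format: 96-well plates. Endpoint: linear interpolation; highest concentration if not reached. TGI denotes the concentration required for complete inhibition of growth.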

How the values were obtained:
Test in all cases: growth of human tumour cells (NCI), 48 h
A549 NSCLC = system: A549 NSCLC
ACHN renal = system: ACHN renal
CCRF-CEM leukemia = system: CCRF-CEM leukemia
HL-60(TB) leukemia = system: HL-60(TB) leukemia
MDA-N = system: MDA-N
MOLT-4 leukemia = system: MOLT-4 leukemia
NCI-H522 lung = system: NCI-H522 lung
NCI/ADR-RES ovarian = system: NCI/ADR-RES ovarian
OVCAR-4 ovarian = system: OVCAR-4 ovarian
SK-MEL-5 melanoma = system: SK-MEL-5 melanoma

Compound	TGI (A549 NSCLC) [µM]	TGI (ACHN renal) [µM]	TGI (CCRF-CEM leukemia) [µM]	TGI (HL-60(TB) leukemia) [µM]	TGI (MDA-N) [µM]	TGI (MOLT-4 leukemia) [µM]	TGI (NCI-H522 lung) [µM]	TGI (NCI/ADR-RES ovarian) [µM]	TGI (OVCAR-4 ovarian) [µM]	TGI (SK-MEL-5 melanoma) [µM]
COc1cc(C2c3cc4c(cc3OC(NN)C2C)OCO4)cc(OC)c1OC (configuration not stated)	> 100	> 100	> 93	0.977	> 100	> 100	8.96	> 100	> 100	> 26.8
CC1=C[C@@H]2Cc3nc4cc(Cl)ccc4c(N)c3[C@H](C1)C2	34.9	23.1	74	35.3	31.5	11.6		25	18.2	11.2
CCCC(=O)OC1CC(n2cc(F)c(=O)[nH]c2=O)OC1COP(=O)(OCC(Cl)(Cl)Cl)OCC(Cl)(Cl)Cl (configuration not stated)	> 94.6	> 96	94.4	40.4	> 31.6	> 62.1	16.6	> 31.6	> 100	> 100
Oc1ccc([I+]c2ccccc2)cc1O	65.5	> 100	60.4	47.1	> 100	85.3	> 100	> 100	> 100	> 100
CCC1(CC)C(=O)NN(C(=O)c2ccccc2)C1=O	> 100	> 100	> 100	> 100	> 100	> 100	> 100	> 100	> 100	> 100
COC(=O)C1CCC(=O)N1C(c1ccc(OC)cc1)c1ccc2c(c1)OCO2 (configuration not stated)	> 100	> 100	> 100	91.2	27.3	> 100	> 100	> 100	> 100	81.7
Cc1c(S(=O)(=O)c2ccccc2)c(N)n(CCN(C)C)c1C	> 100	> 100	> 100	> 100	> 100	> 100	> 100	> 100	> 100	> 100
CCN(CC)CCn1c(=O)c2cccnc2n2c3c(=O)n(C)c(=O)n(C)c3nc12	> 100	> 100	> 100	> 100	> 100	> 100	> 100	> 100	> 100	> 100
O=c1c2sc(=S)n(-c3ccc(F)cc3)c2ncn1/N=C/c1ccc(F)cc1F	> 100	> 100	> 100	> 100	> 100		> 100	> 100	46.8	> 100
CC1=NN(c2cccc(Cl)c2)C2(C1=C/C=C/c1ccccc1)C(Cl)C(=O)N2c1nc2ccccc2s1 (configuration not stated)	> 100	> 42.3	> 59.3	> 68.3	> 100	12.1	47.4	> 100	> 100	> 58.7
Cc1cc(C(=O)CCCCOc2ccc(C3=NCCO3)cc2)c(C)n1C		> 100	46.6	23.7	88	34.4	> 100	> 100	> 100	34.9
CC1=NN(c2cccc(Cl)c2)C2(SCC(=O)N2c2nc3ccccc3s2)/C1=C\c1ccccc1O (configuration not stated)		49	> 100	52.1	53.4	42.3	42.4	55.5	> 100	32.3
CCNC(=O)Cc1nc2c(N)ncnc2n1C1OC(CO)C(O)C1O (configuration not stated)	> 100	> 100		> 100	> 100	> 100	> 100	> 100	> 100	> 100
COc1cc(NS(C)(=O)=O)ccc1Nc1cc(C)[nH]c2ccc3nccc3c12	> 100	> 100		> 100	> 100		> 100	> 100	> 100	> 100
COc1ccc2c(c1)/C(=C\c1c(Cl)nc3sc(C)cn13)C(=O)N2	17	20.1	6.15	6.11	2.04	8.41	14.4	17.7		11.8
CCCCC(C(=O)NCCNC(=O)CCC(=O)N(C)O)C(=O)NCCNC(=O)CCC(=O)N(C)O	> 100	> 100	> 100	> 100	> 100	> 100	> 100	> 100	> 100	> 100
COc1cc(/C=C/C(=O)CC(=O)/C=C/c2ccc(OC(=O)CCCCC3CCSS3)c(OC)c2)ccc1OC(=O)CCCCC1CCSS1 (configuration not stated)	> 100	> 100	> 100	> 100	> 100	> 100	> 100	> 100	> 100	> 100
NC1=NCC(CN2CCOCC2)O1 (configuration not stated)	> 100	> 100	> 100	> 100	> 100	> 100	> 100	> 100	> 100	> 100
Cc1nc(N)c(N2CCN([N+](=O)[O-])CC2)c(=O)[nH]1	> 100	> 100	> 100	> 100	> 100	> 100	> 100	> 100	> 100	
C=CCSc1nnc2cc(CN3CCCC3)c(-c3ccc(Cl)cc3)nn12	> 100	38.3	> 100	43.5	34.2	> 100	42.6	56.3	48	31.1
CCOC(=O)c1ccc(NCC#CCN2CCOCC2)cc1	> 100	> 100	> 100	> 100	> 100	> 100		> 100	> 100	> 100
CCOP(=O)(OCC)C(c1ccc(F)cc1)N(C(=O)NC(F)(F)F)c1ccc(OC)cc1 (configuration not stated)	> 100	> 100	> 100	> 100	> 100	> 100	> 100	> 100		> 100
CSC(=S)N(C)C	> 100		> 100	> 100	> 100	> 100	> 100	> 100		> 100
